One assay concerns TNF-alpha. As to the kind of experiment: Sub-lethal endotoxemia model, serum TNF-alpha after LPS. It is filed as in vivo, mouse. The following applies: dose-dependent; BN83250 s.c., valerolactam oral gavage. Here is the method:
We selected the sub-lethal endotoxemia model in mouse, because this has been well characterised in our laboratory (see for example Fox et al. (2002) J. Med. Chem. 45:360-70; Fox et al. (2005) J. Med. Chem. 48:867-74). The extent of systemic inflammation in response to a single intraperitoneal injection of bacterial lipopolysaccharide (LPS) can be estimated by measuring serum TNF-alpha 2 hours post challenge.
Methods: Mice (CD1 strain; adult males; 6 per group) were treated with BSCI (in an appropriate vehicle) or with vehicle alone by an appropriate route. […] Simultaneously, one set of mice at each BSCI concentration received BIM 23627 at 4 mg/animal (120 mg/kg) by sub-cutaneous injection (a treatment condition known to suppress classical sstr2-mediated signalling, such as GH release, in rats; Tulipano et al. (2002) 143:1218-24). Between 30 mins and 1 hour after dosing (a period when a maximal plasma concentration of BSCI has been achieved), the inflammatory challenge was elicited by intraperitoneal injection of 750 μg of LPS (Sigma; L4130 lot#024K4077; 900,000 EU/mg).
After a further 2 hours, the animals were sacrificed by CO2 asphyxiation, and blood was drawn by cardiac puncture. Serum was prepared by conventional methods, and the level of TNF-alpha in serum was measured using an ELISA (R&D Systems; Murine Quantikine code# MTA00) performed in accordance with the manufacturer's instructions.

The test system of a further assay is Panc-2H4 cells. The assay can be described thus: Human Panc-2H4 insulin suppression assay. It is filed as cell-based. The source says:
Two different assays for “classical” sstr2 functions were adopted: (1) cultured foetal rat pituitary cells secreted growth hormone which is inhibited by sstr2 agonists in a dose-dependent fashion and (2) selected glucose-sensitive sub-clones of the human Panc-1 cell line secrete insulin which is inhibited by sstr2 agonists in a dose-dependent fashion.
Glucose-sensitive sub-clones of the human Panc-1, a cell line derived from a pleiomorphic epithelioid carcinoma of the exocrine pancreas, were obtained essentially as described by Hamil et al. (2008) Biomed. Sci. Instrum. 44:441-6. Briefly, Panc-1 cells were subcultured in 24 well plates, and the medium was supplemented with an additional 5% glucose. […] The resulting sub-lines were then tested for glucose sensitivity by preparing wells of a 96-well plate (5×10^4 cells per well) which were then exposed to cultured medium containing a range of glucose concentrations (low glucose DMEM, DMEM, DMEM+1% glucose, DMEM+2.5% glucose and DMEM+5% glucose). After 24 hrs incubation, the conditioned medium was collected and assayed for insulin secretion by ELISA (Linco; cat# EZHI-14K) in accordance with the manufacturer's instructions. […] Further 96 well plates were prepared using Panc-2H4 (5×10^4 cells per well) in DMEM. After 24 hrs, the medium was switched to DMEM+5% glucose containing various test agents at various concentrations (triplicate wells per condition). After a further 24 hrs, the conditioned medium was harvested and the concentration of insulin was determined by ELISA as described above.
Results were reported as the mean SD, expressed as the fold change from cells in the presence of vehicle only.

In a further assay the test system is Jurkat-D3B cells. The assay can be described thus: SDF-1α induced migration of Jurkat-D3B cells expressing sstr2. It is filed as cell-based, human. The following applies: Jurkat-D3B versus parental Jurkat. Here is the method:
Methods: Total mRNA was prepared from Panc-1 cells (a human pancreas cell line which is well known to express high levels of sstr2) using the RNAqueous 4PCR kit (Ambion, Cat code #1914) in accordance with the manufacturer's instructions. The mRNA was then reverse transcribed (using the RETROscript kit; Ambio) to yield a cDNA preparation. A full length cDNA of the sstr2 gene was then obtained by PCR (using a Peltier PTC-200 thermal cycler using the following cycle times and conditions: 94° C. for 2 min, followed by 30 cycles of 94° C., for 30 sec, 55° C. for 30 sec, 72° C. for 1 min and finally 72° C. for 10 min), and isolated by preparative gel electrophoresis. The sequence of the sstr2 cDNA was confirmed by sequencing. The sstr2 cDNA was treated with EcoRI and Xhol to generate sticky ends, which allowed directional cloning into the polylinker of the plasmid pcDNA3.1+ (Invitrogen) followed by ligation ([…] ligation reactions were run with 400 T4 DNA ligase (New England Biolabs) and the maximal amounts of DNA with an insert:plasmid ratio of 3:1 in ligase buffer incubated overnight at 13° C.). […]
A number of individual cell lines were obtained in this way, which expressed significant levels of sstr2 on the cell surface, detected by flow cytometry using the human-sstr2 antibody (Sigma, 50694; see Example 3 for details of the flow cytometry protocol used). […]

From US20120115742A1, “METHODS FOR IDENTIFICATION” (Cambridge Enterprise Limited, priority 2009, published 2012) come the findings set out here.

Where two headings read alike, the source gives them in different places.

As for “(S)-3-(2′,2′-dimethyldodecanoyl)amino-caprolactam [BN83250]”, the “inhibition of LPS-induced systemic inflammation” value with TNF-alpha is on record as “dramatically inhibited”. The EC50 amounted to 1000 nM in the assay on Panc-2H4 cells (Table 3, read-out: Human Panc-2H4 insulin suppression assay ED50) and 1000 nM with Panc-2H4 cells (Table 5, read-out: Panc-2H4 insulin suppression assay (“classical” target) ED50). For the same substance, the “Human Panc-2H4 insulin suppression assay Max effect” value in the assay on Panc-2H4 cells (Table 3, suppression compared to vehicle) came to 28%. The “Panc-2H4 insulin suppression assay Max Effect” value with Panc-2H4 cells (Table 5) was determined as 28%. Further, the “inhibition of insulin secretion by Panc-2H4” value in the assay on Panc-2H4 cells (highest concentrations tested) is reported as “None of these agents inhibited insulin secretion”. Besides, in the assay with Jurkat-D3B cells, the “increase in BSCI sensitivity by ectopic expression of sstr2” value was “more than 100 fold”.
